Reference: patent publication US10961163B2, “Compositions and methods useful for enhancing the microbial conversion of nitrate into ammonium” (The Regents of the University of California, priority 2016, dated 2021)
Peptide text beside a SMILES is read from it.

These compounds were tested on microbial enrichment cultures (assay: Ammonium production normalized by growth (NH4+/OD ratio) of microbial enrichment cultivated on individual carbon sources). Conditions: not given.
Format: cell-based

SMILES	Ammonium/OD ratio
N=C(N)NCCC[C@H](N)C(=O)O [L-Arginine]	1.79
NCCCC[C@H](N)C(=O)O [L-Lysine]	1.02
O.O=C([O-])C[C@H](O)C(=O)[O-].[Na+].[Na+] [L-Malic acid disodium salt monohydrate]	1.43
N[C@@H](Cc1c[nH]c2ccccc12)C(=O)O [L-Tryptophan]	1.23

Same assay, conditions: average of 8 independent cultures amended with varying concentrations of the carbon source; ammonium by colorimetric (Bertholet) assay, growth by OD 600

SMILES	Ammonium/OD ratio
O=C(O)CC(O)C(=O)O (racemic) [D,L-Malic Acid]	1.41
NCC(=O)NC(CC(=O)O)C(=O)O (racemic) [Gly-DL-Asp]	1.17
CC(O)C(=O)[O-].[Na+] (racemic) [Sodium D,L-Lactate]	0.91
O=CC[C@H](O)[C@H](O)CO [2-Deoxy-D-Ribose]	1.00
O=C(O)c1ccc(O)cc1 [4-Hydroxybenzoic Acid]	1.31
O=C(CO)[C@@H](O)[C@H](O)[C@@H](O)C(=O)[O-].[K+] [5-Keto-D-Gluconic Acid potassium salt]	1.12
Cl.Nc1ncnc2nc[nH]c12.O [Adenine hydrochloride hydrate]	0.93
Nc1ncnc2c1ncn2[C@@H]1O[C@H](CO)[C@@H](O)[C@H]1O [Adenosine]	1.25
OC[C@H]1O[C@@H](O[C@H]2[C@H](O)[C@@H](O)[C@H](O)O[C@@H]2CO)[C@H](O)[C@@H](O)[C@H]1O [Beta-Lactose]	0.99
C[N+](C)(C)CC(O)CC(=O)[O-].Cl (stereo not drawn) [Carnitine Hydrochloride]	1.45
O=C(O)CC(O)(CC(=O)O)C(=O)O [Citric Acid]	1.65
Nc1ccn([C@@H]2O[C@H](CO)[C@@H](O)[C@H]2O)c(=O)n1 [Cytidine]	1.64
Nc1cc[nH]c(=O)n1 [Cytosine]	1.37
C[C@@H](N)C(=O)O [D-Alanine]	1.08
O=C[C@@H](O)[C@H](O)[C@H](O)CO [D-Arabinose]	1.21
OC[C@H]1O[C@@H](O[C@H]2[C@H](O)[C@@H](O)[C@H](O)O[C@@H]2CO)[C@H](O)[C@@H](O)[C@@H]1O [D-Cellobiose]	1.14
O=C(CO)[C@@H](O)[C@H](O)[C@H](O)CO [D-Fructose]	1.42
O=C[C@H](O)[C@@H](O)[C@@H](O)[C@H](O)CO [D-Galactose]	0.93
O.O=C[C@H](O)[C@@H](O)[C@@H](O)[C@H](O)C(=O)O [D-Galacturonic Acid monohydrate]	0.92
O=C([O-])[C@H](O)[C@@H](O)[C@H](O)[C@H](O)CO.[Na+] [D-Gluconic Acid sodium salt]	1.19
Cl.N[C@H]1C(O)O[C@H](CO)[C@@H](O)[C@@H]1O (stereo partly drawn) [D-Glucosamine Hydrochloride]	1.16

SMILES	Ammonium/OD ratio
O=C[C@H](O)[C@@H](O)[C@H](O)[C@H](O)COP(=O)([O-])[O-].[Na+].[Na+] [D-Glucose-6-Phosphate sodium salt]	0.99
O=C[C@H](O)[C@@H](O)[C@H](O)[C@H](O)CO [D-Glucose]	1.33
O=C[C@H](O)[C@@H](O)[C@H](O)[C@H](O)C(=O)O [D-Glucuronic Acid]	1.02
OC[C@H]1O[C@H](O[C@H]2[C@H](O)[C@@H](O)[C@H](O)O[C@@H]2CO)[C@H](O)[C@@H](O)[C@@H]1O [D-Maltose monohydrate]	0.94
OC[C@@H](O)[C@@H](O)[C@H](O)[C@H](O)CO [D-Mannitol]	0.90
O=C[C@@H](O)[C@@H](O)[C@H](O)[C@H](O)CO [D-Mannose]	0.96
O.O.O.O.O.OC[C@H]1O[C@H](OC[C@H]2O[C@H](O[C@]3(CO)O[C@H](CO)[C@@H](O)[C@@H]3O)[C@H](O)[C@@H](O)[C@@H]2O)[C@H](O)[C@@H](O)[C@H]1O [D-Raffinose pentahydrate]	1.03
O=C[C@H](O)[C@H](O)[C@H](O)CO [D-Ribose]	1.36
N[C@H](CO)C(=O)O [D-Serine]	1.81
OC[C@@H](O)[C@@H](O)[C@H](O)[C@@H](O)CO [D-Sorbitol]	0.82
O=C(CO)[C@@H](O)[C@@H](O)[C@H](O)CO [D-Tagatose]	1.14
O.O.OC[C@H]1O[C@H](O[C@H]2O[C@H](CO)[C@@H](O)[C@H](O)[C@H]2O)[C@H](O)[C@@H](O)[C@@H]1O [D-Trehalose dihydrate]	0.82
O=C[C@H](O)[C@@H](O)[C@H](O)CO [D-Xylose]	1.06
CCO [Ethanol]	0.91
NC(=O)[C@@H](O)[C@@H](O)[C@H](O)[C@@H](O)C=O [Glucuronamide]	1.38
NCC(=O)N[C@@H](CCC(=O)O)C(=O)O [Gly-Glu] (H-Gly-Glu-OH)	1.12
OCC(O)CO [Glycerol]	1.19
NCC(=O)O [Glycine]	0.94
O=C(O)CO [Glycolic Acid]	1.01
OC[C@H]1O[C@@H](n2cnc3c(O)ncnc32)[C@H](O)[C@@H]1O [Inosine]	1.44
C=C(CC(=O)O)C(=O)O [Itaconic Acid]	1.40

SMILES	Ammonium/OD ratio
C[C@H](N)C(=O)O [L-Alanine]	1.45
O=C[C@H](O)[C@@H](O)[C@@H](O)CO [L-Arabinose]	1.70
NC(=O)C[C@H](N)C(=O)O [L-Asparagine]	1.16
N[C@@H](CC(=O)O)C(=O)O [L-Aspartic Acid]	1.24
NC(=O)NCCC[C@H](N)C(=O)O [L-Citrulline]	1.46
Cl.N[C@@H](CS)C(=O)O.O [L-Cysteine hydrochloride monohydrate]	1.00
C[C@H](O)[C@@H](O)[C@@H](O)[C@H](O)C=O [L-Fucose]	1.06
N[C@@H](CCC(=O)O)C(=O)[O-].O.[K+] [L-Glutamic acid monopotassium salt monohydrate]	0.98
NC(=O)CC[C@H](N)C(=O)O [L-Glutamine]	1.28
N[C@@H](Cc1c[nH]cn1)C(=O)O [L-Histidine]	1.10
CC[C@H](C)[C@H](N)C(=O)O [L-Isoleucine]	1.13
CC(C)C[C@H](N)C(=O)O [L-Leucine]	1.07
CSCC[C@H](N)C(=O)O [L-Methionine]	1.67
N[C@@H](Cc1ccccc1)C(=O)O [L-Phenylalanine]	1.40
O=C(O)[C@@H]1CCCN1 [L-Proline]	0.94
C[C@H](O)[C@H](O)[C@@H](O)[C@@H](O)C=O.O [L-Rhamnose monohydrate]	1.09
N[C@@H](CO)C(=O)O [L-Serine]	1.20
O=C(CO)[C@@H](O)[C@H](O)[C@@H](O)CO [L-Sorbose]	1.90
C[C@@H](O)[C@H](N)C(=O)O [L-Threonine]	1.35
CC(C)[C@H](N)C(=O)O [L-Valine]	0.94
